# Test results reported in article PMC4738285 (Scientific Reports, 2016).
# What was measured:
# [1] = system: C. perfringens iota toxin on Vero cells; assay type: cell-based, African green monkey
# [2] = system: Ia of C. perfringens iota toxin; assay type: biochemical, Clostridium perfringens
# [3] = system: iota toxin receptor binding on Vero cells; assay type: cell-based, African green monkey; conditions: 4 °C, 30 min
# [4] = target: Hsp70; conditions: read-out: dissociation constant; cited from earlier work
# [5] = system: C. perfringens iota toxin on Vero cells; assay type: cell-based, African green monkey; remark: listed apart in the source
# [6] = system: HeLa; experiment: cells; assay type: cell-based; conditions: Homo sapiens, 48 h, read-out: EC50 value
# [7] = system: HeLa cells; assay type: cell-based, human
# [8] = system: HeLa cells; conditions: human, 24 h
# [9] = system: HeLa cells; experiment: cells; assay type: cell-based; conditions: Homo sapiens; for EC50: read-out: EC50 cell survival, clonogenic assay; for IC50: read-out: IC50 survival, clonogenic assay
# [10] = target: T1, Hsc70 (Homo sapiens, UniProt P11142); experiment: biochemical; assay type: biochemical; parameters: made in house
# [11] = system: SH-SY5Y; experiment: cells; assay type: cell-based; conditions: Homo sapiens, 48 h, read-out: EC50 value
# [12] = system: HT-29; experiment: cells; assay type: cell-based; conditions: Homo sapiens, HT-29, 48 h, read-out: EC50 value
# [13] = target: T2, Hsp70 (Homo sapiens, UniProt P0DMV8); experiment: biochemical; parameters: made in house
# [14] = system: HEK-293; experiment: cells; assay type: cell-based; conditions: Homo sapiens, HEK293, 48 h, read-out: EC50 value
# [15] = system: HeLa cells; assay type: cell-based, human; remark: listed apart in the source
# [16] = target: T2, Hsp70; assay type: biochemical; parameters: made in house; conditions: concentrations up to 200 μM; 0.5 μM Hsp70, 1 mM ATP
# [17] = target: T2, Hsp70; conditions: ITC, 20 °C
# [18] = target: T2, Hsp70; assay type: binding; parameters: made in house; conditions: 500 nM Hsp70, 50 μM 1; five of six regions
# [19] = target: T2, Hsp70; assay type: binding; parameters: made in house; conditions: HeLa cell lysate
# [20] = system: HeLa cells; assay type: cell-based, human; remark: listed apart in the source
# [21] = system: HeLa cells; assay type: cell-based, human; remark: listed apart in the source
# [22] = target: T1, Hsc70; assay type: binding; parameters: endogenous in cells; host or cells: HeLa cell lysate; conditions: HeLa cell lysate
# [23] = target: T2, Hsp70; experiment: biochemical
# T2 sequence (P0DMV8 whole entry): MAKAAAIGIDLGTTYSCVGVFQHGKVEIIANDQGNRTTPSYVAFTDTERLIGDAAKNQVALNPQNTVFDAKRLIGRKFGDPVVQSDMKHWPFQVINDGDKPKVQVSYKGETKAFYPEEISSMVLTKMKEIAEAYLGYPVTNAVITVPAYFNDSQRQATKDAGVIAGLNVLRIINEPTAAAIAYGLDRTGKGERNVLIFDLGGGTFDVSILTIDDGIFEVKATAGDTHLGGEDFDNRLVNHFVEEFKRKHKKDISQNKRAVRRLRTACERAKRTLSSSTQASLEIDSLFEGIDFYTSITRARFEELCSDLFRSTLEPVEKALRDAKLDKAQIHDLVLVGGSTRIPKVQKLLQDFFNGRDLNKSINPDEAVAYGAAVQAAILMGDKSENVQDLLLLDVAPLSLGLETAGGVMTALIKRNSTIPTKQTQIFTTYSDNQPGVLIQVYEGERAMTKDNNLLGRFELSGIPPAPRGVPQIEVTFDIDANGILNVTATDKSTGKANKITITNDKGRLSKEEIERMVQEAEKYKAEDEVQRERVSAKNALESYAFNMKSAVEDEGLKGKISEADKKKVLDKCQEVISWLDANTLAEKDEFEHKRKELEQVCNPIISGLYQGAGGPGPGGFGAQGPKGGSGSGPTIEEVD
# T1 sequence (P11142 whole entry): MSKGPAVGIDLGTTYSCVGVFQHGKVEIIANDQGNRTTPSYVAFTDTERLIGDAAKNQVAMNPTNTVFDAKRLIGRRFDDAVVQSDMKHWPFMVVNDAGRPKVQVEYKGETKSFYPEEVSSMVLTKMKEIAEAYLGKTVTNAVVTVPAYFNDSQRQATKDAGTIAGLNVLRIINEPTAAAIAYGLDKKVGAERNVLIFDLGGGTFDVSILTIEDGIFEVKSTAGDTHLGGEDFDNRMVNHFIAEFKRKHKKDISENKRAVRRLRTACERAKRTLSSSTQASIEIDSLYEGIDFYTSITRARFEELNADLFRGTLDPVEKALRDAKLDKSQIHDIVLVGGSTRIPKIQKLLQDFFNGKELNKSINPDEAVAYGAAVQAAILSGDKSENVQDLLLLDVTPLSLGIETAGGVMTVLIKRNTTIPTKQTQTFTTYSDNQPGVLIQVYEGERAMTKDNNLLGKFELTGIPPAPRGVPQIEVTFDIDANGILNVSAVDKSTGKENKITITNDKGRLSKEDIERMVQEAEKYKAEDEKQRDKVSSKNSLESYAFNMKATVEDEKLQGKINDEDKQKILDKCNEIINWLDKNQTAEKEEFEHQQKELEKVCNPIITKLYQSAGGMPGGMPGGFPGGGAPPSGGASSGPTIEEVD
smiles,measurement,setting,value
N#Cc1ccc(COC[C@H]2O[C@@H](n3c(NCc4ccc(Cl)c(Cl)c4)nc4c(N)ncnc43)[C@H](O)[C@@H]2O)cc1 [VER-155008],intoxication of the cells with iota toxin,[1],inhibitory effect
same,enzyme activity of Ia,[2],had no effect
same,binding of iota toxin to the cells,[3],had no effect
same,Kd,[4],0.3 µM
same,round cells after acidic pulse (translocation of Ia),[5],significantly less round cells
CSc1ccc2c[n+]3ccccc3cc2c1 [Compound 3],intoxication of Vero cells with iota toxin,[1],no comparable inhibitory effect
same,EC50,[6],35.8 ± 12.4 µM
same,localization of Hsp70 at 37 °C,[7],did not alter
same,localization of Hsp70 at 42 °C,[7],did not alter
same,compound remaining intact in HeLa cell lysate,[8],90%
same,EC50,[9],13.1 µM
same,IC50,[9],13.1 µM
same,IC50,[10],931 ± 47 µM
same,EC50,[11],70 ± 10.5 µM
same,EC50,[12],115 ± 52.4 µM
same,IC50,[13],1050 ± 53 µM
same,EC50,[14],22.6 ± 1.3 µM
same,cleavage of procaspases 3 and 7 in combination with staurosporine,[15],did not result in significant procaspase cleavage
same,"procaspase cleavage, compound alone",[15],did not result in significant procaspase cleavage
F[B-](F)(F)F.[Na+] [NaBF4],"apoptosis of HeLa cells, salt with staurosporine",[15],do not affect
Nc1ccc2c[n+]3ccccc3cc2c1 [Compound 1],ATPase activity of Hsp70,[16],remained unaffected
same,toxin-induced cell-rounding,[1],significantly delayed
same,stoichiometry N,[17],1.1
same,TΔSITC,[17]; pH 7.8,8.3 kcal/mol
same,binding enthalpy ΔHITC,[17]; pH 7.8,1.3 ± 0.3 kcal/mol
same,ΔGITC,[17]; pH 7.8,-7.0 kcal/mol
same,Hsp70 binding to p53-derived peptide regions in the presence of 1,[18],abolished
same,Hsp70 bound to matrix-coupled 1,[19],detection of Hsp70
same,accumulation in G2/M phase,[20],did not accumulate in the G2/M phase
same,cell cycle phase distribution,[20],did not result in changes
same,cells remaining in G2/M,[20],> 20%
same,EC50,[6],19.5 ± 2.5 µM
same,cytoplasmic vacuolization after heat stress,[7],strong cytoplasmic vacuolization
same,localization of Hsp70 at 37 °C,[7],did not alter
same,localization of Hsp70 at 42 °C,[7],dramatic Hsp70 re-distribution into the whole nucleus
same,subcellular distribution of Hsp70 in thymidine- and nocodazole-treated cells,[7],did not change
same,compound remaining intact in HeLa cell lysate,[8],90%
same,EC50,[9],11.2 µM
same,IC50,[9],11.2 µM
same,IC50,[10],363 ± 20 µM
same,Inhibition of Hsc70 less efficient compared to Hsp70,[10]; luciferase refolding,8 fold
same,amount of Hsp70 in HeLa cells,[21],did not influence
same,EC50,[11],58.1 ± 4.6 µM
same,EC50,[12],71.6 ± 34 µM
same,Hsc70 bound to matrix-coupled 1,[22],no detectable amount of Hsc70
same,IC50,[13],45 ± 4 µM
same,EC50,[14],29.1 ± 1.1 µM
same,apoptosis induction by staurosporine,[15],enhanced apoptosis induction
same,cleavage of procaspases 3 and 7 in combination with staurosporine,[15],synergistic effect
same,"procaspase cleavage, compound alone",[15],did not result in significant procaspase cleavage
same,Kd,[23],5.6 ± 3.1 µM
C[C@@H]1C[C@H]2O[C@@H]2/C=C\C=C\C(=O)Cc2c(Cl)c(O)cc(O)c2C(=O)O1 [radicicol],enzyme activity of Ia,[2],had no effect
same,binding of iota toxin to the cells,[3],had no effect
same,round cells after acidic pulse (translocation of Ia),[5],significantly less round cells
[Br-].[Na+] [NaBr],"apoptosis of HeLa cells, salt with staurosporine",[15],do not affect
c1cc[n+]2cc3ccc(N4CCCC4)cc3cc2c1 [Compound 2],IC50,[10],34 ± 3 µM
same,IC50,[13],127 ± 7 µM
